Values of other authors in patent publication US20100092556A1, “ALFUZOSIN FORMULATIONS, METHODS OF MAKING, AND METHODS OF USE” (priority 2006, published 2010).
Where a name gives a salt, the structure may show the parent alone.

How the values were obtained:
[1] = oral administration

solubility in alcohol | solubility in dichloromethane | solubility in water | administered dose excreted unchanged in the urine [1] | Compound
sparingly soluble | practically insoluble | freely soluble |  | COc1cc2nc(N(C)CCCNC(=O)C3CCCO3)nc(N)c2cc1OC (racemic) [Alfuzosin hydrochloride, (R,S)—N-[3-[(4-amino-6,7-dimethoxy-2-quinazolinyl)methylamino]propyl]tetrahydro-2-furancarboxamide hydrochloride]
 |  |  | 11% | COc1cc2nc(N(C)CCCNC(=O)C3CCCO3)nc(N)c2cc1OC (racemic) [alfuzosin, (R,S)—N-[3-[(4-amino-6,7-dimethoxy-2-quinazolinyl)methylamino]propyl]tetrahydro-2-furancarboxamide]
